Columns and labels:
Assay in all cases: radiometric filter-binding kinase assay, Kinaseprofiler
CDK2 CCNA2 (human) = CDK2 CCNA2 (human) (UniProt P24941+P20248); details: ATP 45 µM
CDK2 CCNE1 (human) = CDK2 CCNE1 (human) (UniProt P24941+P24864); details: ATP 120 µM
CDK3 CCNE1 (human) = CDK3 CCNE1 (human) (UniProt Q00526+P24864); details: ATP 200 µM
CDK7 CCNH MNAT1 (human) = CDK7 CCNH MNAT1 (human) (UniProt P50613+P51948+P51946); details: compound 10.0 µM; ATP 90 µM
MTOR FKBP1A (human) = MTOR FKBP1A (human) (UniProt P42345+P62942); details: ATP 45 µM
[1] = target: PRKAA2 PRKAB1 PRKAG1 (human) (UniProt P54619+P54646+Q9Y478); details: ATP 45 µM
[2] = system: MAPK9 (human), P45984 [S51N]; details: ATP 45 µM
[3] = system: DDR2 (human), Q16832 [S642A]; details: ATP 200 µM
[4] = system: EPHB2 (human), P29323 [A848S/K918E]; details: ATP 10 µM

Sequence of DDR2 (human), Q16832 [S642A] (Q16832 whole entry, looked up, stated change not applied): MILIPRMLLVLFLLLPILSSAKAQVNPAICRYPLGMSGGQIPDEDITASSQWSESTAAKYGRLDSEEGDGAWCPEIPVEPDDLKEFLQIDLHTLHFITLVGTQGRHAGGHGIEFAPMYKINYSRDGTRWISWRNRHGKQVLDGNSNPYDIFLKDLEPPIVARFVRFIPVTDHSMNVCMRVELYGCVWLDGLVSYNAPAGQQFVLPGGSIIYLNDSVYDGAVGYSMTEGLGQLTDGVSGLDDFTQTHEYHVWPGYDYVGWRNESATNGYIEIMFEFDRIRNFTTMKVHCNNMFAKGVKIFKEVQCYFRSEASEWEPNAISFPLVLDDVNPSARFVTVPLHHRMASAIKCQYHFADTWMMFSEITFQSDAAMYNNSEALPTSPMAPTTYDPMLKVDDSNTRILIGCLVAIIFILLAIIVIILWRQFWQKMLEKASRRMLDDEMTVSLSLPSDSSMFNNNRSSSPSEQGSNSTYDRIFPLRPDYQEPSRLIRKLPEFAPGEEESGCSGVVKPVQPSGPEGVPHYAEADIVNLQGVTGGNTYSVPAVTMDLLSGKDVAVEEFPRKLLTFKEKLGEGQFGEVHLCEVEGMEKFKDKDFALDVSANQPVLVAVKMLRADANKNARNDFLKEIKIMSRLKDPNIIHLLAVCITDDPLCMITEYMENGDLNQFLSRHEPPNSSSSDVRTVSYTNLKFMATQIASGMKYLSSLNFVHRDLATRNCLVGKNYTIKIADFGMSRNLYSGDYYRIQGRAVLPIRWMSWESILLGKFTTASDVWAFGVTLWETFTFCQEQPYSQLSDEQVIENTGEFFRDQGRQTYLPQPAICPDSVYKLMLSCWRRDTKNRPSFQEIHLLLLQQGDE
Sequence of CDK2 CCNE1 (human) (P24864 whole entry, looked up, other chains not shown): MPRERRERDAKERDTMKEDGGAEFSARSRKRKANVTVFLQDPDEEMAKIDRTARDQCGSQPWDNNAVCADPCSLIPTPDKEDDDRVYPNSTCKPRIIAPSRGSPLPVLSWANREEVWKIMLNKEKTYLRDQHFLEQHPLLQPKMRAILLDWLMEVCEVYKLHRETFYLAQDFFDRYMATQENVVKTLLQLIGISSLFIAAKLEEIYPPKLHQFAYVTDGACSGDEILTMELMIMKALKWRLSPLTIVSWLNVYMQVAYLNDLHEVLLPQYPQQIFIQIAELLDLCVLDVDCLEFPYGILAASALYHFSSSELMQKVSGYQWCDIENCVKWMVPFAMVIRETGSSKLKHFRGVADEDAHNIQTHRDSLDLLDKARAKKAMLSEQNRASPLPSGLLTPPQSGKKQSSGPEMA
Sequence of CDK3 CCNE1 (human) (P24864 whole entry, looked up): as the sequence (P24864 whole entry, looked up, other chains not shown) above
Sequence of CDK3 CCNE1 (human) (Q00526 whole entry, looked up): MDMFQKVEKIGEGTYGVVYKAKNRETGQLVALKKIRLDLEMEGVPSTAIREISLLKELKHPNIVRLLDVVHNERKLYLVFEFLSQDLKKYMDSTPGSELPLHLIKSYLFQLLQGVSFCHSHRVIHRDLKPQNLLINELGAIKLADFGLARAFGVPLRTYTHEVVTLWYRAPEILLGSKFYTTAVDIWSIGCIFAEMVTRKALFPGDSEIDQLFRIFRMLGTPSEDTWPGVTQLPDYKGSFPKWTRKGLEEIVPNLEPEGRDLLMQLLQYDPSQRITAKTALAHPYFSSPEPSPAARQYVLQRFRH
Sequence of PRKAA2 PRKAB1 PRKAG1 (human) (P54619 whole entry, looked up): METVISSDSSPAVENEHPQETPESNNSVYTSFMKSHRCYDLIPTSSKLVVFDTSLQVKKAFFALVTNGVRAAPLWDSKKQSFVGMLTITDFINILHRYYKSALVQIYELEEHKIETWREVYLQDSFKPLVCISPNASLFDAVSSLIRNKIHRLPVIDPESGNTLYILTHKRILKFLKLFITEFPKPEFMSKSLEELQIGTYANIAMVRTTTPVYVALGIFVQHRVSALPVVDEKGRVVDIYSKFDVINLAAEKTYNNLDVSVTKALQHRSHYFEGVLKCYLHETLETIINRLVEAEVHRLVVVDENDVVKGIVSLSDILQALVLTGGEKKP
Sequence of PRKAA2 PRKAB1 PRKAG1 (human) (P54646 whole entry, looked up): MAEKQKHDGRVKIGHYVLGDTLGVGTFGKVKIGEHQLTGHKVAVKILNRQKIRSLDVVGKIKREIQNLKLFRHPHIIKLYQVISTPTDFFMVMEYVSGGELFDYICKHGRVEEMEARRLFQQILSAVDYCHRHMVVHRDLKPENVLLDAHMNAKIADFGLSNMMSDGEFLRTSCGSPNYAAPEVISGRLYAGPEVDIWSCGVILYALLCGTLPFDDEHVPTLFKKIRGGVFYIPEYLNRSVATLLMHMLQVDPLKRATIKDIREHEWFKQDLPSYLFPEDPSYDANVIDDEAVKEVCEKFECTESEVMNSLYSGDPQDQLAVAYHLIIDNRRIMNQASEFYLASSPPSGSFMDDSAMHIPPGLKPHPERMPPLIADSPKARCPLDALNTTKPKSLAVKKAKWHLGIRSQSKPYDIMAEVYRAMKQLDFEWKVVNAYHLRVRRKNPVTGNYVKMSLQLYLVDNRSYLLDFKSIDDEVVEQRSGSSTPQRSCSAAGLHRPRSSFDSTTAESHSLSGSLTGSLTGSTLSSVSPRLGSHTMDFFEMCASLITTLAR
Sequence of PRKAA2 PRKAB1 PRKAG1 (human) (Q9Y478 whole entry, looked up): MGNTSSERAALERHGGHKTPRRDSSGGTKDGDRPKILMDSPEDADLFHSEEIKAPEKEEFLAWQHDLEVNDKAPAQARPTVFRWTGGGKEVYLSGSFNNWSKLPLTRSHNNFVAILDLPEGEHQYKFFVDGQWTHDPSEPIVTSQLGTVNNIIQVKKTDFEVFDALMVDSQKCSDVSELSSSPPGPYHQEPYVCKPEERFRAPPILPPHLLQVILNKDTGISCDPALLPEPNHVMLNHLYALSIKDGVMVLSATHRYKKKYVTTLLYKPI
Sequence of MTOR FKBP1A (human) (P62942 whole entry, looked up, other chains not shown): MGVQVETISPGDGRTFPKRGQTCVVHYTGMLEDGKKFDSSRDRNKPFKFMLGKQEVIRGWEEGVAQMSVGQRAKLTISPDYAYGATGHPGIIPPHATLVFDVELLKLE
Sequence of CDK2 CCNA2 (human) (P20248 whole entry, looked up, other chains not shown): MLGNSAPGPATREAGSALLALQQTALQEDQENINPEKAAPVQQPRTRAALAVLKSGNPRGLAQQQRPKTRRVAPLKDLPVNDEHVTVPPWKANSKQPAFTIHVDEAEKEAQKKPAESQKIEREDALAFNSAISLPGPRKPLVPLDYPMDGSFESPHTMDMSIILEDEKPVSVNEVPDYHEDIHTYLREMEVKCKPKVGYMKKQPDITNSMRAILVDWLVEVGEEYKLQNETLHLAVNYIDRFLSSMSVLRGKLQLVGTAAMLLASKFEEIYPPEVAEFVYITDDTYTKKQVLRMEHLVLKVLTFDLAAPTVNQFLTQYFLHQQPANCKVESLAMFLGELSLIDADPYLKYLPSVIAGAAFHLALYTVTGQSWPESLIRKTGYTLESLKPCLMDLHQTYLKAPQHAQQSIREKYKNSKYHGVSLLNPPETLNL
Sequence of CDK7 CCNH MNAT1 (human) (P50613 whole entry, looked up): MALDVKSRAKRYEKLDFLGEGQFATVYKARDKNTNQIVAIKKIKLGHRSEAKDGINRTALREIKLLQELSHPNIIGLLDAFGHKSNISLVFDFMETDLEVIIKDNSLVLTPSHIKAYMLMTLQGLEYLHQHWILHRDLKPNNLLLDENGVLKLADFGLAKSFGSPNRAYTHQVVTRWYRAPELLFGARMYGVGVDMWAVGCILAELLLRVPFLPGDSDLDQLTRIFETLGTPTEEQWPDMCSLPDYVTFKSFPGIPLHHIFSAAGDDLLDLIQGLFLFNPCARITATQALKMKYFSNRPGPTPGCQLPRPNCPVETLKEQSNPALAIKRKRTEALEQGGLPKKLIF
Sequence of CDK7 CCNH MNAT1 (human) (P51946 whole entry, looked up): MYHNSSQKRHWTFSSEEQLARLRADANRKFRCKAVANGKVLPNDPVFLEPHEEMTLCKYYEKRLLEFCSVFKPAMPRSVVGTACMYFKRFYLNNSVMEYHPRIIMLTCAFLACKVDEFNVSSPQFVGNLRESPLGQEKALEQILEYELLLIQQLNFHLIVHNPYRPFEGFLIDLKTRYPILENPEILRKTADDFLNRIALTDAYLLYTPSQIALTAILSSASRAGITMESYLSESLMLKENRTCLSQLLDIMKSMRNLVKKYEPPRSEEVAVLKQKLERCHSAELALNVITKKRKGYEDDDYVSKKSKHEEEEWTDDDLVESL
Sequence of CDK7 CCNH MNAT1 (human) (P51948 whole entry, looked up): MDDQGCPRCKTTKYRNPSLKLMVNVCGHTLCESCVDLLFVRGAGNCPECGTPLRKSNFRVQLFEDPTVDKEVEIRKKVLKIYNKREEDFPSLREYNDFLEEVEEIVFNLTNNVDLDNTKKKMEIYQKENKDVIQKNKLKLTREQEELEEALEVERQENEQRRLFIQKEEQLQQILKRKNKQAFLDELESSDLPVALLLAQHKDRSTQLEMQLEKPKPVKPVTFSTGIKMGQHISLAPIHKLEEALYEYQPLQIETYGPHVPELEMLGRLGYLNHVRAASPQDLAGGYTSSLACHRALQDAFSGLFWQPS

Compound | residual activity ([2]; compound 10.0 µM) [%] | residual activity ([2]; compound 1.0 µM) [%] | residual activity ([3]; compound 1.0 µM) [%] | residual activity ([3]; compound 10.0 µM) [%] | residual activity ([4]; compound 1.0 µM) [%] | residual activity ([4]; compound 10.0 µM) [%] | other results
CO[C@H]1[C@@H](OC)C[C@H](C)[C@@H](OC)C2=CC(=O)C=C(NC(=O)/C(C)=C\C=C/[C@H](OC)[C@@H](OC(N)=O)/C(C)=C\[C@@H]1C)C2=O | – | – | – | – | – | – | residual activity (CDK2 CCNA2 (human); compound 1.0 µM): 138%; residual activity (CDK2 CCNA2 (human); compound 10.0 µM): 83%; residual activity (CDK2 CCNE1 (human); compound 1.0 µM): 104%; residual activity (CDK2 CCNE1 (human); compound 10.0 µM): 91%; residual activity (CDK3 CCNE1 (human); compound 1.0 µM): 100%; residual activity (CDK3 CCNE1 (human); compound 10.0 µM): 87%; residual activity (CDK7 CCNH MNAT1 (human)): 101%; residual activity (MTOR FKBP1A (human); compound 1.0 µM): 77%; residual activity (MTOR FKBP1A (human); compound 10.0 µM): 89%; residual activity ([1]; compound 1.0 µM): 92%; residual activity ([1]; compound 10.0 µM): 78%
COC(=O)[C@]1(O)C[C@@H]2O[C@@]1(C)n1c3ccccc3c3c4c(c5c6ccccc6n2c5c31)C(=O)NC4 | -11 | – | – | – | – | – | –
CN[C@@H]1C[C@H]2O[C@@](C)([C@@H]1OC)n1c3ccccc3c3c4c(c5c6ccccc6n2c5c31)C(=O)NC4 | – | 52 | – | – | – | – | –
O=C1Nc2ccccc2/C1=C1\Nc2ccccc2\C1=N/O | 17 | 55 | 94 | 87 | 91 | 13 | –
O=C(Nc1cccc(Nc2nccc(Nc3cccc(C(F)(F)F)c3)n2)c1)C1CC1 | – | – | – | 35 | – | – | –
O=C1c2ccccc2-c2n[nH]c3cccc1c23 | -6 | 26 | 93 | 92 | 101 | 95 | –

From the kinase profiling compilation of Christmann-Franck et al. (2016)
